What is called viability is a per cent measure of how many cells are alive, often set against a control. For orientation: IC50 means the midpoint of a concentration-inhibition curve. What is called GI50 is the concentration that inhibits growth by half. High values mean less potent growth inhibition, low ones more potent growth inhibition.

Where two headings read alike, the source gives them in different places.

We go through seven compounds from article PMC12530851, “Design, synthesis, and apoptotic antiproliferative activity of novel dihydropyrimidine-5-carbonitrile/1,2,4-oxadiazole hybrids as dual EGFR/VEGFR-2 inhibitors endowed with antioxidant activity” (RSC Advances, 2025).

The nature of data set [1]: Cell viability assay (MTT) on normal MCF-10A cells. It counts as cell-based. To be noted: human, MCF-10A mammary gland epithelial cells (normal cell line), MCF-10A normal cells, four-day incubation. The method, then:
The impact of novel compounds 10a–l on the viability of a normal human cell line, specifically human mammary gland epithelial cells (MCF-10A), was assessed to ascertain the safety of the newly synthesized compounds. The MTT test was employed to assess the cell viability of the novel compounds after a four-day incubation with MCF-10A cells.[29,37] Refer to Appendix A for more experimental details.
The effect of new compounds 10a–l on the viability of a normal human cell line, namely human mammary gland epithelial cells (MCF-10A), was evaluated to determine the safety of the newly synthesized compounds.
4.2. Biological evaluation
4.2.1 Cell Viability assay (MTT assay)
MTT assay was performed to investigate the effect of the synthesized compounds on mammary epithelial cells (MCF-10A). The cells were propagated in medium consisting of Ham's F-12 medium/ Dulbecco's modified Eagle's medium (DMEM) (1:1) supplemented with 10% foetal calf serum, 2 mM glutamine, insulin (10 μg/mL), hydrocortisone (500 ng/mL) and epidermal growth factor (20 ng/mL). Trypsin ethylenediamine tetra acetic acid (EDTA) was used to passage the cells after every 2-3 days. 96-well flat-bottomed cell culture plates were used to seed the cells at a density of 10^4 cells mL-1. The medium was aspirated from all the wells of culture plates after 24 h followed by the addition of synthesized compounds (in 200 μL medium to yield a final concentration of 0.1% (v/v) dimethyl sulfoxide) into individual wells of the plates. Four wells were designated to a single compound. The plates were allowed to incubate at 37°C for 96 h. Afterwards, the medium was aspirated and 3-[4,5-dimethylthiazol-2-yl]-2,5-diphenyltetrazolium bromide (MTT) (0.4 mg/mL) in medium was added to each well and subsequently incubated for 3 h. The medium was aspirated and 150 μL dimethyl sulfoxide (DMSO) was added to each well. The plates were vortexed followed by the measurement of absorbance at 540 nm on a microplate reader. […]

For a further data set, the system named is A-549 (lung cancer). The data set can be described thus: Antiproliferative assay, A-549. It counts as cell-based. The following applies: Homo sapiens, A549; A-549 lung cancer cells; read-out: Antiproliferative activity IC50 ± SEM, A-549. The text has this: (§1) The dose–response experiments established the IC50 values for the new compounds. The given findings were obtained from at least two distinct studies, each comprising three repeats per concentration. Appendix A (SI File) provides experimental details.[38,39]
(§2) The MTT assay[43] was utilized to assess the antiproliferative effects of compounds 10a–l on four human cancer cell lines: HT-29 (colon cancer), Panc-1 (pancreatic cancer), A-549 (lung cancer), and MCF-7 (breast cancer). […]
(§3) 4.2.2. Assay for antiproliferative effect
(§4) To explore the antiproliferative potential of compounds propidium iodide fluorescence assay was performed using different cell lines such as Panc-1 (pancreas cancer cell line), MCF-7 (breast cancer cell line), HT-29 (colon cancer cell line) and A-549 (epithelial cancer cell line), respectively. To calculate the total nuclear DNA, a fluorescent dye (propidium iodide, PI) is used which can attach to the DNA, thus offering a quick and precise technique. PI cannot pass through the cell membrane and its signal intensity can be considered as directly proportional to quantity of cellular DNA. Cells whose cell membranes are damaged or have changed permeability are counted as dead ones. The assay was performed by seeding the cells of different cell lines at a density of 3000-7500 cells/well (in 200μl medium) in culture plates followed by incubation for 24h at 37 °C in humidified 5%CO2/95% air atmospheric conditions. The medium was removed; the compounds were added to the plates at 10 μM concentrations (in 0.1% DMSO) in triplicates, followed by incubation for 48h. DMSO (0.1%) was used as control. After incubation, medium was removed followed by the addition of PI (25 μl, 50μg/mL in water/medium) to each well of the plates. At - 80 °C, the plates were allowed to freeze for 24 h, followed by thawing at 25 °C. A fluorometer (Polar-Star BMG Tech) was used to record the readings at excitation and emission wavelengths of 530 and 620 nm for each well. The percentage cytotoxicity of compounds was calculated using […]
(§5) Where ATC= Absorbance of treated cells and AC= Absorbance of control. Erlotinib was used as positive control in the assay. […]

The test system of another data set is MCF-7 (breast cancer). The data set can be described thus: Antiproliferative assay, MCF-7. To be noted: Homo sapiens, MCF7; MCF-7 breast cancer cells; read-out: Antiproliferative activity IC50 ± SEM, MCF-7. Type of data set: cell-based, human.
Source text: as §1, §2, §3, §4, §5

In data set [2] the test system is Panc-1 (pancreatic cancer). Put plainly: Antiproliferative assay, Panc-1. To be noted: Homo sapiens; Panc-1 pancreatic cancer cells; read-out: Antiproliferative activity IC50 ± SEM, Panc-1. It counts as cell-based.
Source text: as §1, §2, §3, §4, §5

A further data set concerns HT-29 (colon cancer). Put plainly: Antiproliferative assay, HT-29. Type of data set: cell-based. The following applies: Homo sapiens; HT-29 colon cancer cells; read-out: Antiproliferative activity IC50 ± SEM, HT-29.
Source text: as §1, §2, §3, §4, §5

Data set [3] has as its system four human cancer cell lines (A-549, MCF-7, Panc-1, HT-29). The data set can be described thus: Antiproliferative assay, average over four cancer cell lines. Type of data set: cell-based. To be noted: for GI50: average IC50 across A-549, MCF-7, Panc-1, HT-29; for Reduction in antiproliferative potency relative to 10k (GI50): less potent than 10k. As for the experimental part: The given findings were obtained from at least two distinct studies, each comprising three repeats per concentration. Appendix A (SI File) provides experimental details.[38,39] […]
as §3
To explore the antiproliferative potential of compounds propidium iodide fluorescence assay was performed using different cell lines such as Panc-1 (pancreas cancer cell line), MCF-7 (breast […]
respectively. To calculate the total nuclear DNA, a fluorescent dye (propidium iodide, PI) is used which can attach to the DNA, thus offering a quick and precise technique. PI cannot pass through the cell membrane and its signal intensity can be considered as directly proportional to quantity of cellular DNA. Cells whose cell membranes are damaged or have changed permeability are counted as dead ones. The assay was performed by seeding the cells of different cell lines at a density of 3000-7500 cells/well (in 200μl medium) in culture plates followed by incubation for 24h at 37 °C […]
The medium was removed; the compounds were added to the plates at 10 μM concentrations (in 0.1% DMSO) in triplicates, followed by incubation for 48h. DMSO (0.1%) was used as control. After incubation, medium was removed followed by the addition of PI (25 μl, 50μg/mL in water/medium) to each well of the plates. At - 80 °C, the plates were allowed to freeze for 24 h, followed by thawing at 25 °C. A fluorometer (Polar-Star BMG Tech) was used to record the readings at excitation and emission wavelengths of 530 and 620 nm for each well. The percentage cytotoxicity of compounds was calculated using […]
Where ATC= Absorbance of treated cells and AC= Absorbance of control. […]
positive control in the assay. […]

Data set [4] has as its target T1, VEGFR-2 (Homo sapiens, UniProt P35968). The data set can be described thus: VEGFR-2 inhibitory assay.
Method: The majority of signals detected by antiphosphotyrosine antibody were from EGFR because the enzyme preparation contained low impurities.
Prepare all the solutions using autoclaved, deionized water and analytical grade reagents. Prepare
and store all the reagents at room temperature (unless indicated otherwise). EDTA solution (0.5
M, pH 8.0): add 95 mL ultra-pure water to 14.612 g EDTA, adjust the pH to 8.0 using NaOH
solution, add 5 mL ultra-pure water; 1×Kinase Assay Buffer: add 25 mL HEPES solution (1 M),
water, adjust pH to 7.5 and constant volume to 500 mL using ultrapure water; 4×Stop solution (40
mM): Mix 0.8 mL of the foregoing EDTA solution, 1 mL 10×Detection Buffer and 8.2 mL ultra-
pure water; 1×Detection Buffer: Mix 1 mL 10×Detection Buffer with 9 mL water; 4×VEGFR
μM) was added to 624 μL 1×Kinase Assay Buffer and mixed; 4×ULight™-labeled JAK1
concentration 5 μM) was added to 576 μL 1×Kinase Assay Buffer and mixed; 4×ATP Solution
2×substrate/ATP Mix: 560 μL foregoing 4×ULight™-labeled JAK1 and 560 μL 4×ATP solution
and mixed (prepared before use). The assays used an ULight-labeled peptide substrate and a
Europium-W1024-labeled antiphosphotyrosine antibody. The VEGFR-2 was purchased from
Carna Biosciences, Inc. (New York, USA). The 384-well plates were obtained from PerkinElmer.
Compounds were dissolved in DMSO and diluted to 11 concentrations at a tripling rate from 2.500
5 μL 2×VEGFR-2 kinase solution (0.5 nM)
was added to 384-well plates homogeneous mixing and pre-reaction at room temperature for 30
min. Next, 2.5 μL 4×Ultra ULightTM-JAK-1(Tyr1023) Peptide (200 nM)/ATP (40 μM) was
added to the corresponding wells of a 384-well plate. Negative control: 2.5 μL/well 4×substrate/ATP mixture and 7.5 μL 1×kinase assay buffer in 384-well plate well. Positive control:
μL/well 2×VEGFR-2 kinase solution was added to the 384-well plate, The final concentration of DMSO in the mixing system was 4%. After incubation at room temperature and dark for 60 min, 5 μL 4×stop solution was added to corresponding wells to react for 5 min and then 5 μL 4×detection mix was added to the corresponding wells of a 384-well plate. The mixture was centrifugally mixed and stayed for 60 min at room temperature for color development. The plate
was read using an Envision plate reader. The inhibition rate (%) = (positive well reading-
compound well reading)/(positive well reading-negative well reading)×100. The corresponding IC50 values were calculated using GraphPad Prism 5.0.
Data set [5] concerns the target T2, EGFR (Homo sapiens, UniProt P00533). The data set can be described thus: EGFR inhibitory assay (EGFR-TK test).
Method: Baculoviral expression vectors including pBlueBacHis2B and pFASTBacHTc were used
5ʹ upstream to the EGFR sequence comprised a sequence that encoded (His)6. Sf-9 cells were infected for 72h for protein expression. The pellets of Sf-9 cells were solubilized in a buffer containing sodium vanadate (100 μM), aprotinin (10 μg/mL), triton (1%), HEPES
buffer(50mM), ammonium molybdate (10 μM), benzamidine HCl (16 μg/mL), NaCl (10 mM),leupeptin (10 μg/mL) and pepstatin (10 μg/mL) at 0°C for 20 min at pH 7.4, followed by centrifugation for 20 min. To eliminate the nonspecifically bound material, a Ni-NTA super flow packed column was used to pass through and wash the crude extract supernatant first with 10mM and then with 100 mM imidazole. Histidine-linked proteins were first eluted with 250 and then with 500 mM imidazole subsequent to dialysis against NaCl (50 mM), HEPES (20 mM), glycerol (10%) and 1 μg/mL each of aprotinin, leupeptin and pepstatin for 120 min. The purification was performed either at 4 °C or on ice. To record autophosphorylation level, EGFR kinase assay was carried out on the basis of DELFIA/Time-Resolved Fluorometry. The compounds were first
dissolved in DMSO absolute, subsequent to dilution to appropriate concentration using HEPES
(25 mM) at pH 7.4. Each compound (10 μL) was incubated with recombinant enzyme (10 μL, 5
ng for EGFR, 1:80 dilution in 100 mM HEPES) for 10 min at 25 °C, subsequent to the addition of
5X buffer (10 μL, containing 2 mM MnCl2, 100 μM Na3VO4, 20 mM HEPES and 1 mM DTT)
and ATP-MgCl2 (20 μL, containing 0.1 mM ATP and 50 mM MgCl2) and incubation for 1h. The
negative and positive controls were included in each plate by the incubation of enzyme either with
or without ATP-MgCl2. The liquid was removed after incubation and the plates were washed
thrice using a wash buffer. The Europium-tagged antiphosphotyrosine antibody (75 μL, 400 ng)
was added to each well followed by incubation of 1h and then washing of the plates using buffer.
The enhancement solution was added to each well and the signal was recorded at excitation and
The autophosphorylation percentage inhibition by compounds was calculated using the following equation:
calculated. The majority of signals detected by antiphosphotyrosine antibody were from EGFR because the enzyme preparation contained low impurities.
For data set [6], the target named is T1, VEGFR-2. More on the design: purchased Carna Biosciences, Inc. To be noted: cited from earlier work.
Data set [7] deals with T2, EGFR. More on the design: 645–1186; His6 (N); made in house; host or cells: Sf-9 insect cells (baculovirus; pBlueBacHis2B and pFASTBacHTc vectors). To be noted: cited from earlier work.
The subject of the next data set is BRAF^V600E. The arrangement: method as in PMID 39281035. To be noted: cited from earlier work.
In the next data set the test system is mutant EGFR (EGFR^T790M). The arrangement: method as in PMID 39281035. The following applies: cited from earlier work.

T1 sequence (P35968 20-1356): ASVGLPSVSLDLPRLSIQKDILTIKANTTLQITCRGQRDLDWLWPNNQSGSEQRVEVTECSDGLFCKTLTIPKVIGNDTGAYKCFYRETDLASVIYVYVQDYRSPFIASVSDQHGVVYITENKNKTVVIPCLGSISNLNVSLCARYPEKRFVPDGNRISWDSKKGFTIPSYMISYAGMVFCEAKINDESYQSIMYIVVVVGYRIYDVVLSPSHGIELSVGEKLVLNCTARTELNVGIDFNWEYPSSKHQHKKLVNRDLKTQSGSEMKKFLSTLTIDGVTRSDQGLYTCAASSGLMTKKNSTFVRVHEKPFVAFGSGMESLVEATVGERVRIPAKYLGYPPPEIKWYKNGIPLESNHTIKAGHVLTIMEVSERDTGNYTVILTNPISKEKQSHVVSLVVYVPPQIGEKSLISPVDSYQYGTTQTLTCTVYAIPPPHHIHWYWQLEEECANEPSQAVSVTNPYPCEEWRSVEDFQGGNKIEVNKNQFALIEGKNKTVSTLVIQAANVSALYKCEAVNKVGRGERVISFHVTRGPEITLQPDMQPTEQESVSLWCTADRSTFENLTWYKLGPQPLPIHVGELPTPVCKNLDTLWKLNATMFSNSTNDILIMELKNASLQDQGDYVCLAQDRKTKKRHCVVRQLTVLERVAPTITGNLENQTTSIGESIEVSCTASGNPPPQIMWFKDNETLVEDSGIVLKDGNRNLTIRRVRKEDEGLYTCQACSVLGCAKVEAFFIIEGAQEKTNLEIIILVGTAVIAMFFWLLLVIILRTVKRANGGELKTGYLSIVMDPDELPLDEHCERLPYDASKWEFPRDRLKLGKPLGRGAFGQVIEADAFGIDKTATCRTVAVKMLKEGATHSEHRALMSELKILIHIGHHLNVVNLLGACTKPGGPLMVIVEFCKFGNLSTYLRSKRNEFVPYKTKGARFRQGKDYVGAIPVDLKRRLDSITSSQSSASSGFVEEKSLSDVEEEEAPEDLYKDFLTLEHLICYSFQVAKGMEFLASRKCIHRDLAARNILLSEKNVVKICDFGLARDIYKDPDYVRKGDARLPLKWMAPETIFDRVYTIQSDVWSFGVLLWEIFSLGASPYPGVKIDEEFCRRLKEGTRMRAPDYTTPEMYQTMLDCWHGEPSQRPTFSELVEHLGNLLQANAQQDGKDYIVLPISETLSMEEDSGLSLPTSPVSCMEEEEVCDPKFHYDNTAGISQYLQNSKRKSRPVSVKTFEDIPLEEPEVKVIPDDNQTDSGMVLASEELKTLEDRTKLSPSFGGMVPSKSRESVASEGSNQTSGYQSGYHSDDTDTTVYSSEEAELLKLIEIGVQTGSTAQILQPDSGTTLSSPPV
T2 sequence (P00533 669-1210): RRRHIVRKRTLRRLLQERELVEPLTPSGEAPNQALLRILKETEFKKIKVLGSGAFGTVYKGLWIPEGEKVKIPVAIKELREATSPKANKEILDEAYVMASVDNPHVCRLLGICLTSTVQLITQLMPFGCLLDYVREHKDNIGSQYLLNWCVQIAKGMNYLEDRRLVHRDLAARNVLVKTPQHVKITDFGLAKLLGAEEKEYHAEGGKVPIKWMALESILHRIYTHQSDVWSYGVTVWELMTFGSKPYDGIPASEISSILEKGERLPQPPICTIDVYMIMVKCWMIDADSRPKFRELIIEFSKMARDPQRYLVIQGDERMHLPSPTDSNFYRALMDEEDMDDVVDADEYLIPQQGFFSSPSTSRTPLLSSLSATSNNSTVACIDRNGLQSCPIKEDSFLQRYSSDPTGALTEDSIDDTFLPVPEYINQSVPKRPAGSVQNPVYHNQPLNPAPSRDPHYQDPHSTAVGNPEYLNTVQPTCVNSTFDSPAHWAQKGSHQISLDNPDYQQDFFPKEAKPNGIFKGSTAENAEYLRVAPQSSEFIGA

Turning to `N#Cc1c(-c2ccncc2)nc(SCc2nc(-c3ccc(Cl)cc3)no2)[nH]c1=O` [Compound 10e, 2-(((3-(4-Chlorophenyl)-1,2,4-oxadiazol-5-yl)methyl)thio)-6-oxo-4-(pyridin-4-yl)-1,6-dihydropyrimidine-5-carbonitrile], the viability at 96 h, 50 µM in [1] turned out to be 90%. Moreover, the IC50 in the data set with A-549 (lung cancer) was determined as 30 ± 2 nM; in the data set with MCF-7 (breast cancer), 25 ± 1 nM; in data set [2] it was 28 ± 1 nM; with HT-29 (colon cancer) it was 30 ± 2 nM; on VEGFR-2 [4], 32 ± 2 nM; on EGFR [5] it was 65 ± 4 nM. For the same compound, halving of growth in [3] (Homo sapiens) (GI50) required 28 nM. The “Reduction in antiproliferative potency relative to 10k (GI50)” value in data set [3] amounted to 1.3 fold.

Consider `N#Cc1c(-c2ccc(Cl)cc2)nc(SCc2nc(-c3ccc(Cl)cc3)no2)[nH]c1=O` [Compound 10h, 2-(((3-(4-Chlorophenyl)-1,2,4-oxadiazol-5-yl)methyl)thio)-4-(4-chlorophenyl)-6-oxo-1,6-dihydropyrimidine-5-carbonitrile], for which the viability at 96 h, 50 µM in data set [1] was determined as 92%. The IC50 with A-549 (lung cancer) was found to be 35 ± 2 nM; in the data set with MCF-7 (breast cancer) it was 31 ± 2 nM; in data set [2], 35 ± 2 nM; in the data set with HT-29 (colon cancer), 36 ± 2 nM; at VEGFR-2 [4], 43 ± 3 nM; at EGFR [5], 79 ± 5 nM. Besides, the GI50 in data set [3] (Homo sapiens) amounted to 31 nM; in data set [3] it was 34 nM. The “Reduction in antiproliferative potency relative to 10k (GI50)” value in data set [3] worked out at 1.6 fold.

Compound `COc1ccc(-c2noc(CSc3nc(-c4ccc(Cl)cc4)c(C#N)c(=O)[nH]3)n2)cc1` [Compound 10i, 2-(((3-(4-Methoxyphenyl)-1,2,4-oxadiazol-5-yl)methyl)thio)-4-(4-chlorophenyl)-6-oxo-1,6-dihydropyrimidine-5-carbonitrile] displayed a viability at 96 h, 50 µM in [1] of 91%. Further, the IC50 was found to be 33 ± 2 nM with A-549 (lung cancer); 28 ± 1 nM with MCF-7 (breast cancer); 30 ± 1 nM in data set [2]; 34 ± 1 nM with HT-29 (colon cancer); 39 ± 2 nM at VEGFR-2 [4]; 71 ± 5 nM at EGFR [5]. For the same compound, the concentration for 50% growth inhibition (GI50) in [3] (Homo sapiens) is 34 nM; in [3], 31 nM.

For the compound `COc1cc(-c2noc(Cn3cc(-c4ccccc4)nn3)n2)cc(OC)c1OC` [Compound III], the values for the IC50 on VEGFR-2 [6] (read-out: VEGFR-2 IC50) and at EGFR [7] were 2.4 nM and 76 nM, respectively.

In the case of `CC(=O)c1ccc(NC(=O)CSC2=NC(=O)C(C#N)C(c3ccccc3)N2)cc1` (stereo not shown) [Compound II], the IC50 on VEGFR-2 [6] (read-out: VEGFR-2 kinase IC50) is 199 nM.

For `O=c1c2ccccc2nc(SCc2nc(-c3ccc(Cl)cc3)no2)n1-c1ccccc1` [Compound IV], in the data set on BRAF^V600E, the half-inhibitory concentration (IC50) was 48 nM. For the same compound, the “Efficacy against mutant EGFR (EGFR^T790M)” value in the data set on mutant EGFR (EGFR^T790M) was “considerable efficacy”.

Consider `COc1ccc(-c2csc(NC(=O)CSc3nc(-c4ccc(OC)cc4)c(C#N)c(=O)[nH]3)n2)cc1` [Compound I], for which the IC50 on EGFR [7] (in vitro EGFR inhibitory assay) is 190 ± 200 nM.
